Laboratory results: patent US20100172854A1, “ANTIBACTERIAL FORMULATIONS” (priority 2007, published 2010)
In brackets after ≈: the same amount, converted by molar mass.

Key:
[1] = test system: Propionibacterium acnes NCTC 737; assay: MIC assay; format: cell-based; conditions: Cutibacterium acnes, NCTC737; P. acnes NCTC 737
Procedure: The propionibacteria were cultured and maintained on Wilkins-Chalgren Anaerobe Medium (agar and broth) at pH 6.0; all cultures were incubated anaerobically at 37° C. for 72 hours.
This is a standard international method for quantitatively assessing the antimicrobial activity of a compound in a liquid medium. The method used a sterile 96-well microtitre plate, capable of holding about 200 μl of liquid per well. The wells contained liquid culture medium and ranges of decreasing concentrations of the relevant test compound in doubling dilutions (e.g. 1000, 500, 250, 125 . . . μg/ml, etc. down to 0.49 μg/ml). The culture media were as described above.
The wells were inoculated with a liquid suspension of freshly grown micro-organism and incubated under the conditions described above. After incubation, the microtitre plate was examined visually (with the aid of a light box) for cloudiness in each well, which would indicate microbial growth. The MIC value was recorded as the lowest concentration of test compound required to inhibit microbial growth, i.e. the lowest concentration for which the liquid in the well remained clear.
The assays included both negative (culture medium with no micro-organisms) and positive (culture medium plus diluting solvent plus micro-organism) controls.

S. aureus ATCC 12602 = assay: MBC assay; format: cell-based, Staphylococcus aureus
Procedure: (§1) The staphylococci were cultured and maintained on Mueller-Hinton Medium (agar and broth) at pH 7.2; cultures were incubated aerobically at 37° C. for 19-20 hours.
(§2) This assay, normally carried out after an MIC assay, determines the minimum concentration of a compound that is lethal to the micro-organism being tested.
(§3) These samples were then individually sub-cultured on antibiotic-free agar medium, under the incubation conditions described above. Following incubation they were examined visually for microbial growth.

S. aureus ATCC 12607 = assay: MBC assay; format: cell-based, Staphylococcus aureus
Procedure: as §1, §2, §3

S. aureus ATCC 25923 = assay: MBC assay; format: cell-based, Staphylococcus aureus
Procedure: as §1, §2, §3

S. aureus CPHL EMRSA 17 = assay: MBC assay; format: cell-based, Staphylococcus aureus; conditions: resistance phenotype Met/β-lactams
Procedure: as §1, §2, §3

[2] = test system: S. aureus CPHL GISA HO41340156; assay: MBC assay; format: cell-based, Staphylococcus aureus; conditions: resistance phenotype Van/Tec (intermediate)
Procedure: as §1, §2, §3

S. aureus CPHL VISA Mu3 = assay: MBC assay; format: cell-based, Staphylococcus aureus; conditions: resistance phenotype Van (intermediate)
Procedure: as §1, §2, §3

S. aureus CPHL VISA Mu50 = assay: MBC assay; format: cell-based, Staphylococcus aureus; conditions: resistance phenotype Van (intermediate)
Procedure: as §1, §2, §3

S. aureus NCTC 12981 = assay: MBC assay; format: cell-based, Staphylococcus aureus
Procedure: as §1, §2, §3

[3] = test system: Actinomyces naeslundii ATCC 12104; assay: MBC assay; format: cell-based
Procedure: as §2, §3

[4] = test system: Bacillus cereus ATCC 11778; assay: MBC assay; format: cell-based
Procedure: as §2, §3

[5] = test system: Clostridium difficile ATCC 7000057; assay: MBC assay; format: cell-based
Procedure: as §2, §3

[6] = test system: Clostridium sporogenes ATCC 3584; assay: MBC assay; format: cell-based
Procedure: as §2, §3

[7] = test system: Corynebacterium mucifaciens ATCC 700355; assay: MBC assay; format: cell-based; conditions: ATCC700355
Procedure: as §2, §3

[8] = test system: Enterococcus faecalis ATCC 29212; assay: MBC assay; format: cell-based; conditions: ATCC29212
Procedure: as §2, §3

[9] = test system: Gardnerella vaginalis ATCC 14018; assay: MBC assay; format: cell-based
Procedure: as §2, §3

[10] = test system: Listeria monocytogenes ATCC 15313; assay: MBC assay; format: cell-based
Procedure: as §2, §3

[11] = test system: Prevotella nigrescens ATCC 33563; assay: MBC assay; format: cell-based
Procedure: as §2, §3

[12] = test system: Streptococcus pyogenes ATCC 12344; assay: MBC assay; format: cell-based
Procedure: as §2, §3

[13] = test system: Streptococcus sobrinus ATCC 33478; assay: MBC assay; format: cell-based
Procedure: as §2, §3

tumour = conditions: compound isolated from Aspergillus fumigatus, believed to be Antioxidant 2246; cited from earlier work
a range of test bacteria = conditions: compound isolated from Aspergillus fumigatus, believed to be Antioxidant 2246; cited from earlier work

In the case of `Cc1cc(Cc2cc(C)cc(C(C)(C)C)c2O)c(O)c(C(C)(C)C)c1` [AO 2246, 2,2′-methylene-bis(4-methyl-6-tert-butylphenol)], the MIC [1] is reported as 3.9 µg/mL (≈ 11.5 µM), the “MIC/MBC Ratio” value (S. aureus ATCC 12602) is reported as 0.5 and the MBC (S. aureus ATCC 12602; Staphylococcus aureus, ATCC12602) is reported as 3.9 µg/mL (≈ 11.5 µM). The “MIC/MBC Ratio” value (S. aureus ATCC 12607) was 0.25, the MBC (S. aureus ATCC 12607; Staphylococcus aureus, ATCC12607) was 7.8 µg/mL (≈ 22.9 µM) and the “MIC/MBC Ratio” value (S. aureus ATCC 25923) was 1. For the same compound, the MBC (S. aureus ATCC 25923; Staphylococcus aureus, ATCC25923) was 7.8 µg/mL (≈ 22.9 µM), the MBC (S. aureus CPHL EMRSA 17; Staphylococcus aureus) was 7.8 µg/mL (≈ 22.9 µM) and the “MIC/MBC Ratio” value (S. aureus CPHL EMRSA 17) was 0.25. The MBC ([2]; Staphylococcus aureus) was 3.9 µg/mL (≈ 11.5 µM), the “MIC/MBC Ratio” value [2] was 0.5 and the MBC (S. aureus CPHL VISA Mu3; Staphylococcus aureus) was 7.8 µg/mL (≈ 22.9 µM). The “MIC/MBC Ratio” value (S. aureus CPHL VISA Mu3) was 0.25, the MBC (S. aureus CPHL VISA Mu50; Staphylococcus aureus) was 15.6 µg/mL (≈ 45.8 µM) and the “MIC/MBC Ratio” value (S. aureus CPHL VISA Mu50) was 0.06. The “MIC/MBC Ratio” value (S. aureus NCTC 12981) was 0.25, the MBC (S. aureus NCTC 12981; Staphylococcus aureus, NCTC12981) was 7.8 µg/mL (≈ 22.9 µM) and the “MIC/MBC Ratio” value [3] was 0.5. For the same compound, the MBC ([3]; ATCC12104) was 3.9 µg/mL (≈ 11.5 µM), the “MIC/MBC Ratio” value [4] was 0.5 and the MBC ([4]; ATCC11778) was 3.9 µg/mL (≈ 11.5 µM). The “MIC/MBC Ratio” value [5] was 1, the MBC ([5]; Clostridioides difficile, ATCC7000057) was 3.9 µg/mL (≈ 11.5 µM) and the “MIC/MBC Ratio” value [6] was 0.125. The MBC ([6]; ATCC3584) was 31.2 µg/mL (≈ 91.8 µM), the MBC ([7]; Corynebacterium mucifaciens ATCC 700355) was 3.9 µg/mL (≈ 11.5 µM) and the “MIC/MBC Ratio” value ([7]; Corynebacterium mucifaciens) was 0.5. For the same compound, the MBC ([8]; Enterococcus faecalis ATCC 29212) was 7.8 µg/mL (≈ 22.9 µM), the “MIC/MBC Ratio” value ([8]; Enterococcus faecalis) was 0.25 and the “MIC/MBC Ratio” value [9] was 1. The MBC ([9]; ATCC14018) was 15.6 µg/mL (≈ 45.8 µM), the “MIC/MBC Ratio” value [10] was 0.25 and the MBC ([10]; ATCC15313) was 7.8 µg/mL (≈ 22.9 µM). For the same compound, the “MIC/MBC Ratio” value [11] was <0.5, the MBC ([11]; ATCC33563) was > 15.6 µg/mL and the “MIC/MBC Ratio” value [12] was 1. For the same compound, the MBC ([12]; ATCC12344) was 0.98 µg/mL (≈ 2.88 µM), the “MIC/MBC Ratio” value [13] was 0.5 and the MBC ([13]; ATCC33478) was 31.2 µg/mL (≈ 91.8 µM). For the same compound, the anti-tumour activity (tumour) was “anti-tumour activity” and the “in vitro antimicrobial activity” value (a range of test bacteria) was “no in vitro antimicrobial activity”.
